Results from US9261498B2, “Biomarker for sensitivity to mTOR inhibitor therapy in kidney cancer” (The Regents of the University of California, priority 2005, dated 2016).

Experiments:
[1] = system: SN12C-CSCG and ACHN-CSCG xenograft tumors; experiment: Subcutaneous xenograft tumor growth, parental tumors; assay type: in vivo, SCID mice; details: 0.1 mg/kg CCI-779 daily
Experimental: (§1) FIGS. 1A-1E. Effects of VHL knockdown on sensitivity to CCI-779. (a) Immunoblotting of lysates derived from shRNA and control (empty vector, V) in SN12C, using antibodies against VHL (both isoforms detected), HIF-1α, HIF-2α, GLUT-1, CA-IX and β-Actin (as a loading control). (b) SN12C-CSCG and SN12C-VHLshRNA cells (1×10^5) were cultured in 10% serum rich media, in the presence of vehicle, 1 or 10 nM of CCI-779 for 5 days. Cell growth was measured by cell counts (n=3). […] (c) SN12C-CSCG (C1) and SN12C-CSCG shVHL RNA (C2) cells were injected into SCID mice at a dose of 1×10^6 cells per mouse (n=30). […] Phosphorylated-S6 protein in SN12C-CSCG and SN12C-VHL shRNA xenograft tumors treated with vehicle or 0.1 mg/kg of CCI-779 was measured by immunoblot C3 and C4). […]
(§2) For in vitro experiments, cells (5×10^4) were plated and treated with 1 and 10 nM CCI-779 (kind gift of J. Gibbons, Wyeth) or vehicle (ethanol). On day 5-post treatment, cells were trypsinized, resuspended in DMEM with 10% FBS and counted using the VI CELL counter (Beckman Coulter), according to the manufacturer's instructions. […] In vivo tumorigenicity was measured by injection of 5×10^5 SN12C-CSCG, ACHN-CSCG, SN12C-CSCG-VHLshRNAi, ACHN-CSCG-VHLshRNAi, SN12C-CSCG-VHLshRNAi-pBABE, SN12C-CSCG-VHLshRNAi-pBABE-HA-HIF-2α (P405A; P531A) cells in 100 μl of Matrigel (Collaborative Biomedical) subcutaneously into the flanks of SCID mice. […]

[2] = system: SN12C-shVHL RNAi and ACHN-shVHL RNAi xenograft tumors; experiment: Subcutaneous xenograft tumor growth, VHL knockdown tumors; assay type: in vivo, SCID mice; details: 0.1 mg/kg CCI-779 daily
Experimental: as §1, §2

With `CO[C@H]1C[C@@H]2CC[C@@H](C)[C@@](O)(O2)C(=O)C(=O)N2CCCC[C@H]2C(=O)O[C@H]([C@H](C)C[C@@H]2CC[C@@H](OC(=O)C(C)(CO)CO)[C@H](OC)C2)CC(=O)[C@H](C)/C=C(\C)[C@@H](O)[C@@H](OC)C(=O)[C@H](C)C[C@H](C)/C=C/C=C/C=C/1C` [CCI-779] the “growth of the parental tumors” value [1] was “no effect” and the “growth of the VHL shRNAi tumors” value [2] was “completely blocked the growth”.
